Values quoted from earlier work as cited in US20260324642A1, “COMPOSITION, PEST CONTROL PREPARATION, AND PEST CONTROL METHOD” (priority 2023, published 2026).

Conditions: known activity, background art

SMILES	insecticidal activity
C/C=C(/C)C(=O)O[C@H]1CC[C@@]2(C)[C@@H]3CC[C@H]4[C@]5(O)C[C@H](O)[C@@]6(O)[C@@H](CN7C[C@@H](C)CC[C@H]7[C@@]6(C)O)[C@]5(O)C[C@@]42O[C@]13O [Cevadine]	known to have insecticidal activity
COc1ccc(C(=O)O[C@H]2CC[C@@]3(C)[C@@H]4CC[C@H]5[C@]6(O)C[C@H](O)[C@@]7(O)[C@@H](CN8C[C@@H](C)CC[C@H]8[C@@]7(C)O)[C@]6(O)C[C@@]53O[C@]24O)cc1OC [Veratridine]	known to have insecticidal activity
